Measured values published in patent US20220370453A1 (Storm Therapeutics Ltd, priority 2019, published 2022).

What was measured:
BCDIN3D [1] = molecular target: T1, BCDIN3D (Homo sapiens, UniProt Q7Z5W3); assay: BCDIN3D InCellPulse thermal stability assay in transfected A549 cells; format: cell-based; conditions: transiently transfected A549 cells, heat shock 58° C. 15 min
T1 sequence (Q7Z5W3 1-292): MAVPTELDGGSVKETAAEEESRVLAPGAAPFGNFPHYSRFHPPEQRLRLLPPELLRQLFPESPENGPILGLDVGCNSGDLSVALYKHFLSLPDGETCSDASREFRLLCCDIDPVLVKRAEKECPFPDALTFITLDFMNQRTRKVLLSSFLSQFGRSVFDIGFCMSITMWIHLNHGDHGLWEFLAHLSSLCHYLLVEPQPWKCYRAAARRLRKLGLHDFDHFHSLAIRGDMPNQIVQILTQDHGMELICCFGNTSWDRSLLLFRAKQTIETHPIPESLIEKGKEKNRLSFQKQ
Outline: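 Thermal stabilisation read-out: after a 15 min 58 °C heat shock, ePL-tagged BCDIN3D in transiently transfected A549 cells (1500/well) was quantified by enzyme-fragment complementation luminescence. Compounds were pre-incubated with cells 1 h at 37 °C, 0.6% DMSO final.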

BCDIN3D [2] = molecular target: T1, BCDIN3D; assay: BCDIN3D IC50 RFMS (RapidFire) assay with mini-helix; format: biochemical; conditions: mini-helix substrate 0.2 μM, SAM 6 μM, 25 nM enzyme
Outline: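 SAH formation was measured by RapidFire mass spectrometry with D4- and 13C10-SAH internal standards after TCA quench. Substrates 6 μM SAM and 0.2 μM mini-helix reacted 1 h at 37 °C with 25 nM enzyme, which had been preincubated 10 min with compound (1% DMSO) in Tris pH 8.0 buffer with DTT, EDTA, BSA.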

IC50 (BCDIN3D [1]) | IC50 (BCDIN3D [2]) | Compound
608 nM | 783 nM | COC[C@@H](C)Nc1nc(NC[C@H](N)c2ccccc2)nc2c1cnn2C [Compound 4.117, N6-[(2R)-2-amino-2-phenyl-ethyl]-N4-[(1R)-2-methoxy-1-methyl-ethyl]-1-methyl-pyrazolo[3,4-d]pyrimidine-4,6-diamine]
2500 nM | 2150 nM | Cn1ncc2c(NC(C)(C)C3CCOCC3)nc(NC[C@H](N)c3ccccc3)nc21 [Compound 4.118, N6-[(2R)-2-amino-2-phenyl-ethyl]-1-methyl-N4-(1-methyl-1-tetrahydropyran-4-yl-ethyl)pyrazolo[3,4-d]pyrimidine-4,6-diamine]
27 nM | 24 nM | Cn1ncc2c(NC3CC4(CC4)C3)nc(NC[C@H](N)c3ccccc3)nc21 [Compound 4.119, 1-methyl-N6-[(2R)-2-amino-2-phenyl-ethyl]-N4-spiro[2.3]hexan-5-yl-pyrazolo[3,4-d]pyrimidine-4,6-diamine]
1450 nM | 252 nM | Cn1ncc2c(NC3CC3(C)C)nc(NC[C@H](N)c3ccccc3)nc21 (stereo partly drawn) [Compound 4.120, N6-[(2R)-2-amino-2-phenyl-ethyl]-N4-(2,2-dimethylcyclopropyl)-1-methyl-pyrazolo[3,4-d]pyrimidine-4,6-diamine]
4810 nM | 6450 nM | CC(C)(C)Nc1nc(NC[C@H](N)c2ccccc2)nc2c1cnn2C1CC1 [Compound 4.121, N6-[(2R)-2-amino-2-phenyl-ethyl]-N4-tert-butyl-1-cyclopropyl-pyrazolo[3,4-d]pyrimidine-4,6-diamine]
220 nM | 120 nM | CC(C)[C@@H](C)Nc1nc(NC[C@H](N)c2ccccc2)nc2c1cnn2C [Compound 4.122, N6-[(2R)-2-amino-2-phenylethyl]-1-methyl-N4-[(2R)-3-methylbutan-2-yl]-1H-pyrazolo[3,4-d]pyrimidine-4,6-diamine]
3560 nM | 1410 nM | CC(C)[C@H](C)Nc1nc(NC[C@H](N)c2ccccc2)nc2c1cnn2C [Compound 4.123, N6-[(2R)-2-amino-2-phenylethyl]-1-methyl-N4-[(2S)-3-methylbutan-2-yl]-1H-pyrazolo[3,4-d]pyrimidine-4,6-diamine]
570 nM | 290 nM | Cn1ncc2c(NC3CC4(CC(O)C4)C3)nc(NC[C@H](N)c3ccccc3)nc21 (stereo partly drawn) [Compound 4.124, 6-[(6-{[(2R)-2-amino-2-phenylethyl]amino}-1-methyl-1H-pyrazolo[3,4-d]pyrimidin-4-yl)amino]spiro[3.3]heptan-2-ol]
2310 nM | 450 nM | Cn1ncc2c(NC3CCC(C(F)(F)F)CC3)nc(NC[C@H](N)c3ccccc3)nc21 (stereo partly drawn) [Compound 4.125, N6-[(2R)-2-amino-2-phenylethyl]-1-methyl-N4-[4-(trifluoromethyl)cyclohexyl]-1H-pyrazolo[3,4-d]pyrimidine-4,6-diamine]
580 nM | 450 nM | Cn1ncc2c(N[C@H]3CCC(F)(F)C3)nc(NC[C@H](N)c3ccccc3)nc21 [Compound 4.126, N6-[(2R)-2-amino-2-phenylethyl]-N4-[(1S)-3,3-difluorocyclopentyl]-1-methyl-1H-pyrazolo[3,4-d]pyrimidine-4,6-diamine]
2240 nM | 6770 nM | Cn1ncc2c(NC3(C)CCOCC3)nc(NC[C@H](N)c3ccccc3)nc21 [Compound 4.127, N6-[(2R)-2-amino-2-phenylethyl]-1-methyl-N4-(4-methyloxan-4-yl)-1H-pyrazolo[3,4-d]pyrimidine-4,6-diamine]
1290 nM | 1010 nM | Cc1nn(C)c2nc(NC[C@H](N)c3ccccc3)nc(NC(C)(C)C)c12 [Compound 4.128, N6-[(2R)-2-amino-2-phenylethyl]-N4-tert-butyl-1,3-dimethyl-1H-pyrazolo[3,4-d]pyrimidine-4,6-diamine]
290 nM | 180 nM | C[C@@H](Nc1nc(NC[C@H](N)c2ccccc2)nc2c1cnn2C)C1CC1 [Compound 4.129, N6-[(2R)-2-amino-2-phenylethyl]-N4-[(1R)-1-cyclopropylethyl]-1-methyl-1H-pyrazolo[3,4-d]pyrimidine-4,6-diamine]
11200 nM | 6010 nM | CC(C)Cc1nc(NCC(N)c2ccccc2)nc2c1cnn2C (stereo not drawn) [Compound 4.130, N2-[1-methyl-4-(2-methylpropyl)-1H-pyrazolo[3,4-d]pyrimidin-6-yl]-1-phenylethane-1,2-diamine]
944 nM | 217 nM | Cc1ccc(CNc2nc(NCC(N)c3ccccn3)nc3c2cnn3C)cc1Cl (stereo not drawn) [Compound 5.02]
436 nM | 89.4 nM | Cn1ncc2c(Nc3ccc(C(F)(F)F)cc3)nc(NCC(N)c3ccccn3)nc21 (stereo not drawn) [Compound 5.03, 6-N-(2-amino-2-pyridin-2-ylethyl)-1-methyl-4-N-[4-(trifluoromethyl)phenyl]pyrazolo[3,4-d]pyrimidine-4,6-diamine]
3640 nM | 694 nM | CNc1nc(NCC(N)c2cccc(C#N)c2)nc2c1cnn2C (stereo not drawn) [Compound 5.04, 3-[1-Amino-2-[[1-methyl-4-(methylamino)pyrazolo[3,4-d]pyrimidin-6-yl]amino]ethyl]benzonitrile]
68.3 nM | 51.8 nM | C#Cc1cccc(C(N)CNc2nc(NC(C)(C)C)c3cnn(C)c3n2)c1 (stereo not drawn) [Compound 5.05, N6-[2-Amino-2-(3-ethynylphenyl)ethyl]-N4-tert-butyl-1-methyl-pyrazolo[3,4-d]pyrimidine-4,6-diamine]
1110 nM | 1100 nM | Cn1ncc2c(NC(C)(C)C)nc(NCC(N)c3ccccn3)nc21 (stereo not drawn) [Compound 5.06, N6-[2-amino-2-(2-pyridyl)ethyl]-N4-tert-butyl-1-methyl-pyrazolo[3,4-d]pyrimidine-4,6-diamine]
882 nM | 135 nM | Cc1ccc(CNc2nc(NCC(N)c3cccnc3)nc3c2cnn3C)cc1Cl (stereo not drawn) [Compound 5.07, 6-N-(2-amino-2-pyridin-3-ylethyl)-4-N-[(3-chloro-4-methylphenyl)methyl]-1-methylpyrazolo[3,4-d]pyrimidine-4,6-diamine]
1170 nM | 615 nM | Cn1ncc2c(NC(C)(C)C)nc(NCC(N)c3cccnc3)nc21 (stereo not drawn) [Compound 5.08, N6-[2-amino-2-(3-pyridyl)ethyl]-N4-tert-butyl-1-methyl-pyrazolo[3,4-d]pyrimidine-4,6-diamine]
55.9 nM | 127 nM | Cn1ncc2c(Nc3ccc(C(F)(F)F)cc3)nc(NCC(N)c3ccccc3Cl)nc21 (stereo not drawn) [Compound 5.09, 6-N-[2-amino-2-(2-chlorophenyl)ethyl]-1-methyl-4-N-[4-(trifluoromethyl)phenyl]pyrazolo[3,4-d]pyrimidine-4,6-diamine]
462 nM | 495 nM | Cn1ncc2c(NC(C)(C)C)nc(NCC(N)c3ccccc3Cl)nc21 (stereo not drawn) [Compound 5.10, N6-[2-amino-2-(2-chlorophenyl)ethyl]-N4-tert-butyl-1-methyl-pyrazolo[3,4-d]pyrimidine-4,6-diamine]
457 nM | 321 nM | Cn1ncc2c(NC(C)(C)C)nc(NC[C@H](N)c3ccccc3Cl)nc21 [Compound 5.11, N6-[(2R)-2-amino-2-(2-chlorophenyl)ethyl]-N4-tert-butyl-1-methyl-pyrazolo[3,4-d]pyrimidine-4,6-diamine]
643 nM | 345 nM | Cc1ccc(CNc2nc(NCC(N)c3ccccc3F)nc3c2cnn3C)cc1Cl (stereo not drawn) [Compound 5.12, 6-N-[2-amino-2-(2-fluorophenyl)ethyl]-4-N-[(3-chloro-4-methylphenyl)methyl]-1-methylpyrazolo[3,4-d]pyrimidine-4,6-diamine]
525 nM | 383 nM | Cn1ncc2c(NC(C)(C)C)nc(NCC(N)c3ccccc3F)nc21 (stereo not drawn) [Compound 5.13, N6-[2-amino-2-(2-fluorophenyl)ethyl]-N4-tert-butyl-1-methyl-pyrazolo[3,4-d]pyrimidine-4,6-diamine]
429 nM | 294 nM | [2H]C([2H])([2H])n1ncc2c(NC(C)(C)C)nc(NCC(N)c3ccccc3F)nc21 (stereo not drawn) [Compound 5.14, N6-[2-amino-2-(2-fluorophenyl)ethyl]-N4-tert-butyl-1-(trideuteriomethyl)pyrazolo[3,4-d]pyrimidine-4,6-diamine]
47.1 nM | 28.4 nM | CC(C)Nc1nc(NC[C@H](N)c2cccc(Br)c2)nc2c1cnn2C [Compound 5.15, N6-[(2R)-2-amino-2-(3-bromophenyl)ethyl]-N4-isopropyl-1-methyl-pyrazolo[3,4-d]pyrimidine-4,6-diamine]
38.5 nM | 41.7 nM | Cn1ncc2c(NC(C)(C)C(F)(F)F)nc(NC[C@H](N)c3cccc(Br)c3)nc21 [Compound 5.16, N6-[(2R)-2-amino-2-(3-bromophenyl)ethyl]-1-methyl-N4-(2,2,2-trifluoro-1,1-dimethyl-ethyl)pyrazolo[3,4-d]pyrimidine-4,6-diamine]
1870 nM | 470 nM | CNc1nc(NCC(N)c2cccc(Br)c2)nc2c1cnn2C (stereo not drawn) [Compound 5.17, 6-N-[2-amino-2-(3-bromophenyl)ethyl]-4-N,1-dimethylpyrazolo[3,4-d]pyrimidine-4,6-diamine]
